For data set [1], the system named is Citrobacter freundii. Kind of data set: Antibacterial activity against Citrobacter freundii expressing NDM-1 assessed as decrease in meropenem MIC at 8 mg/L incubated for 18 to 20 hrs by broth microdilution method. It counts as functional. As to conditions: time 18-20 hrs.
Data set [2] concerns Citrobacter freundii. Kind of data set: Antibacterial activity against Citrobacter freundii expressing NDM-1 assessed as decrease in meropenem MIC at 4 mg/L incubated for 18 to 20 hrs by broth microdilution method. The format is functional. As to conditions: time 18-20 hrs.
For data set [3], the system named is Escherichia coli. As to the kind of experiment: Antibacterial activity against Escherichia coli expressing NDM-1 assessed as decrease in meropenem MIC at 4 mg/L incubated for 18 to 20 hrs by broth microdilution method. As to conditions: time 18-20 hrs. The format is functional.
Data set [4] can be described thus: Inhibition of NDM-1 (unknown origin) using nitrocefin as substrate. Further details: species or system Homo sapiens.
The nature of data set [5]: Inhibition of NDM-1 (unknown origin) expressed in Escherichia coli. The arrangement: species or system Homo sapiens.
The test system of data set [6] is Escherichia coli. Kind of data set: Antibacterial activity against Escherichia coli measured after 18 hrs. The format is functional.
The subject of the next data set is Klebsiella pneumoniae. Kind of data set: Synergistic antibacterial activity against carbapenem-resistant Klebsiella pneumoniae expressing NDM-1 measured after 18 hrs in the presence of meropenem. The format is functional.
Data set [7] in a line: Inhibition of NDM-1 (unknown origin) measured after 10 mins. Further details: species or system Homo sapiens.
Data set [8] is described as follows: Binding affinity to NDM-1 (unknown origin) assessed as inhibition constant using cefazolin as substrate incubated for 5 mins measured for every 1 sec by isothermal titration calorimetric analysis. The arrangement: species or system Homo sapiens.
Another data set has as its system L929. As to the kind of experiment: Cytotoxicity against mouse L929 cells at 250 uM incubated for 48 hrs by MTT assay relative to control. The format is toxicity, cell-based. The conditions noted are these: l929, 48 h.
Data set [9] concerns Escherichia coli. As to the kind of experiment: Synergistic antibacterial activity against Escherichia coli BL21 (DE3) expressing NDM-1 incubated for 12 hrs in the presence of cefuroxime sodium by two-fold checkerboard microdilution method. The format is functional.
The nature of data set [10]: Inhibition of NDM-1 (unknown origin) by HPLC analysis. Further details: species or system Homo sapiens.
A short description of data set [11]: Binding affinity to NDM-1 (unknown origin) assessed as kinetic constant using cefazolin as substrate preincubated for 60 sec followed by cefazolin addition after 60 sec by isothermal titration calorimetric assay. The arrangement: species or system Homo sapiens.
A short description of data set [12]: Inhibition of NDM-1 (unknown origin) using cefazolin as substrate incubated for 12 hrs by Agilent UV8453 UV-Vis spectrometric analysis. The arrangement: species or system Homo sapiens.
A further data set is filed under the species Homo sapiens. Kind of data set: Inhibition of NDM-1 (unknown origin) at 16 uM using cefazolin as substrate incubated for 12 hrs by Agilent UV8453 UV-Vis spectrometric analysis relative to control.
Data set [13] in a line: Inhibition of NDM-1 (unknown origin). The arrangement: species or system Homo sapiens.
A short description of data set [14]: Binding affinity to NDM-1 (unknown origin) assessed as inhibition constant using meropenem as substrate incubated for 10 mins. Further details: species or system Homo sapiens.
Data set [15] is described as follows: Inhibition of NDM-1 (unknown origin) using meropenem as substrate incubated for 10 mins. The arrangement: species or system Homo sapiens.
Data set [16] can be described thus: Inhibition of NDM-1 (unknown origin) using cefuroxime sodium as substrate incubated for 5 mins by UV-1800 spectrophotometric analysis. The arrangement: species or system Homo sapiens.
Data set [17] can be described thus: Inhibition of NDM-1 (unknown origin) expressed in Escherichia coli Zc-YN3.
The nature of data set [18]: Oral bioavailability in BALB/c mouse relative to control. It counts as ADME, organism-based. The conditions noted are these: in vivo.
Data set [19] can be described thus: Inhibition of NDM-1 (unknown origin) by using nitrocefin as substrate preincubated for 10 min followed by nitrocefin addition incubated after 30 min. Further details: species or system Homo sapiens.

Converted amounts (≈) assume the structure as drawn. Where a SMILES comes first, the peptide text is derived from it. [ ]: non-standard residue; d: D form. The star is where a group is joined. NODAGA = O=C(O)CN1CCN(CC(=O)O)CCN(C(CCC(=O)*)C(=O)O)CC1; NMeA = CN[CH](C)C(=O)O A value given as a limit tells only on which side of the number the result lay.

For the compound `c1ccc(CN(CCN(Cc2ccccn2)Cc2ccccn2)Cc2ccccn2)nc1`, the MIC with Citrobacter freundii [1] is 0.06 µg/mL; in the data set on Citrobacter freundii [2], 0.5 µg/mL.
On to `O=C(O)CN1CCN(CC(=O)O)CCN(CC(=O)O)CC1`, for which the MIC in the data set on Escherichia coli [3] came to 0.125 µg/mL.
As for `N[C@@H](CN[C@@H](CN[C@@H](CC(=O)O)C(=O)O)C(=O)O)C(=O)O`, the IC50 in data set [4] worked out at 4 µM.
As for `O=C(O)[C@@H]1SC[C@H]2CS[C@H](CS)N21`, in data set [5], inhibition was half-maximal at 23 µM (IC50).
Same read-out and setting: with `O=C(O)[C@H]1SC[C@@H]2CS[C@@H](CS)N21` the figure was 109 µM.
`CC1(C)S[C@@H]2CS[C@@H](CS)N2[C@H]1C(=O)O`: the IC50 in [5] stood at 180 µM.
Turning to `O=C1N(Cc2cccc3ccccc23)c2ccccc2C12NN=C(c1ccccc1)S2` (configuration not stated), the MIC against Escherichia coli [6] stood at 4 µM (≈ 1.69 µg/mL); with Klebsiella pneumoniae, 2 µM. The compound further registered a concentration for half-maximal inhibition (IC50) in data set [7] of 6.6 µM.
`CC1(C)S[C@H]2CS[C@H](CS)N2[C@@H]1C(=O)O` came in with an IC50 in data set [5] of 200 µM.
Regarding `O=C(NNC(=S)S)c1ccccc1O`, the inhibition constant Ki in [8] came to 0.29 µM.
`O=C(NNC(=S)[S][K])c1ccccc1O` had an Activity in the data set on L929 of more than 80%.
For the compound `CC(C(=O)NC(Cc1ccccc1)C(=O)N(C)C(C)C(=O)NC(Cc1ccccc1)C(N)=O)N(C)C(=O)CCC(C(=O)O)N1CCN(CC(=O)O)CCN(CC(=O)O)CC1` (configuration not stated) ({NODAGA}-[NMeA]F[NMeA]F-NH2; configuration not given here), in the data set on Escherichia coli [3], the MIC was 0.125 µg/mL.
For `CC1(C)S[C@@H]2[C@H](NC(=O)[C@H](N)c3ccccc3)C(=O)N2[C@H]1C(=O)O` [AMPICILLIN], in the data set with Escherichia coli [9], the MIC turned out to be 32 µM.
For the compound `O=C(O)[C@H]1O[C@@H](Oc2cc3oc(-c4ccccc4)cc(=O)c3c(O)c2O)[C@H](O)[C@@H](O)[C@@H]1O` [BAICALIN], the IC50 in [10] stood at 3.89 µM.
Turning to `O=C(O)C(=O)CBr` [BROMOPYRUVATE], the Ki in [11] stood at 3.8 µM. This compound returned a half-inhibitory concentration (IC50) in data set [12] of 2.57 µM. In the data set listed under Homo sapiens, this compound returned an inhibition of more than 90%.
The compound `O=C(O)CN(CCN(CC(=O)O)CC(=O)O)CC(=O)O` [EDETIC ACID] registered an IC50 in data set [13] of 1.6 µM.
`CCCCCCCCCCCC1=C(O)C(=O)C=C(O)C1=O` [EMBELIN]: the Ki in data set [14] came out at 0.19 µM. Moreover, in data set [15], the IC50 is 2.1 µM.
`COc1ccc([C@@H]2CC(=O)c3c(O)cc(O[C@@H]4O[C@H](CO[C@@H]5O[C@@H](C)[C@H](O)[C@@H](O)[C@H]5O)[C@@H](O)[C@H](O)[C@H]4O)cc3O2)cc1O` [HESPERIDIN] gave an IC50 in data set [16] of 3.35 µM.
`C=CCc1ccc(O)c(-c2cc(CC=C)ccc2O)c1` [MAGNOLOL] came in with an IC50 in data set [17] of 6.47 µM.
`COC(=O)C[C@H]1[C@]2(C)C3=C(C)[C@H](c4ccoc4)C[C@H]3O[C@@H]2[C@@H]2OC(=O)[C@]3(C)C=CC(=O)[C@@]1(C)[C@@H]23` [NIMBOLIDE]: in data set [13], the IC50 is 1.34 µM.
In turn, `COc1cc(/C=C/c2ccc(O)cc2)cc(OC)c1` [PTEROSTILBENE] returned a bioavailability in [18] of 80%. The IC50 in data set [19] stood at 15.37 µg/mL (≈ 60 µM).
